Assay results: patent US20220098203A1 (priority 2018, published 2022)

molecular target: T1, MAT2A homodimer (Homo sapiens, UniProt P31153); experiment: MAT2A biochemical assay (liberated phosphate, PiColorLock Gold); details: Table 5a; MAT2A biochemical assay; read-out: Enzyme Inhibition
T1 construct: inferred from the Ni sepharose purification and imidazole elution; made in house; host or cells: SF9 insect cells, recombinant baculovirus (Bac to Bac, pFASTBAC1)
Procedure: Mat2A protein was expressed by recombinant baculovirus in SF9 infected cells using the Bac to Bac system cloned into the pFASTBAC1 vector (Invitrogen, Carlsbad, Calif.). Recombinant MAT2A was isolated from the cell lysate of 150 g of infected cells using HP Ni sepharose column chromatography. Recombinant MAT2A homodimer was eluted with 250 and 500 mM imidazole, and fractions containing MAT2A were identified by sodium dodecyl sulfate polyacrylamide gel electrophoresis and pooled.
Test compound was prepared in 100% dimethyl sulfoxide (DMSO) at 50× the desired final concentration. A 1 μL volume of compound dilution was added to 40 μL of enzyme dilution and the mixture was allowed to equilibrate for 60 minutes at 25° C. The enzymatic assay was initiated by the addition of 10 μL of substrate mix (500 μM ATP, pH 7.0, 400 μM L-methionine in 1× assay buffer), and the mixture was incubated for a further 60 minutes at 25° C. The reaction was halted and the liberated phosphate released by the enzyme in stoichiometric amounts by the production of S-adenosyl methionine (SAM) was measured using the PiColorLock Gold kit (Innova Biosciences, UK). Absolute product amounts were determined by comparison to a standard curve of potassium phosphate buffer, pH 8.0.

T1 sequence (P31153 whole entry): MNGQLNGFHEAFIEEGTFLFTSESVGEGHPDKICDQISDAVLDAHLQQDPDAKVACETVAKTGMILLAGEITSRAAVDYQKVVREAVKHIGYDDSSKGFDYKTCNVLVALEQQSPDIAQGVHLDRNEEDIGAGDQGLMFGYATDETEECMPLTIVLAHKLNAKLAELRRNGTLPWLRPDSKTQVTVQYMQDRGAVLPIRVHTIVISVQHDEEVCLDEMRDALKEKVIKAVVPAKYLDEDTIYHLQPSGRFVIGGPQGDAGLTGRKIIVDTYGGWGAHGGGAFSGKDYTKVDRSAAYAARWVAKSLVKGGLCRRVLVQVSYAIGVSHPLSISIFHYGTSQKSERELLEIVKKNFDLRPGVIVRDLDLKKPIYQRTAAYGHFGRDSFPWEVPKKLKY

SMILES | IC50 [µM]
COc1ccc(N2Cc3cnc(NCC(F)(F)F)nc3N(c3ccc(C(N)=O)cc3)C2=O)cc1 [Example 276, 4-(3-(4-methoxyphenyl)-2-oxo-7-((2,2,2-trifluoroethyl)amino)-3,4-dihydropyrimido[4,5-d]pyrimidin-1(2H)-yl)benzamide] | 0.1 to 1
COc1ccc(N2Cc3cnc(SC)nc3N(c3ccc(C)cc3)C2=O)cc1 [Example 244, 3-(4-methoxyphenyl)-7-(methylthio)-1-(p-tolyl)-3,4-dihydropyrimido[4,5-d]pyrimidin-2(1H)-one] | 1 to 10
O=C1N(c2ccc3nccn3c2)Cc2cnc(NCC(F)(F)F)nc2N1c1ccc(-c2nc[nH]n2)cc1 [Example 222, 1-(4-(1H-1,2,4-triazol-3-yl)phenyl)-3-(imidazo[1,2-a]pyridin-6-yl)-7-((2,2,2-trifluoroethyl)amino)-3,4-dihydropyrimido[4,5-d]pyrimidin-2(1H)-one] | < 0.1
CCOc1ccc2c(n1)N(c1ccc(OC)cc1)C(=O)N(c1ccc(C#N)cc1)C2 [Example 116, 4-(7-ethoxy-1-(4-methoxyphenyl)-2-oxo-1,2-dihydropyrido[2,3-d]pyrimidin-3(4H)-yl)benzonitrile] | 1 to 10
CCC(=O)c1ccc(N2C(=O)N(c3ccc(OC)cc3)Cc3cnc(NCC(F)(F)F)nc32)cc1 [Example 199, 3-(4-methoxyphenyl)-1-(4-propionylphenyl)-7-((2,2,2-trifluoroethyl)amino)-3,4-dihydropyrimido[4,5-d]pyrimidin-2(1H)-one] | 0.1 to 1
COc1ccc(N2Cc3cnc(NCC(F)(F)F)nc3N(c3ccc(OC)cn3)C2=O)cc1 [Example 257, 3-(4-Methoxyphenyl)-1-(5-methoxypyridin-2-yl)-7-(2,2,2-trifluoroethylamino)-3,4-dihydropyrimido[4,5-d]pyrimidin-2(1H)-one] | 0.1 to 1
COc1ccc(N2Cc3cnc(NCC(F)(F)F)nc3N(c3ccc(O)cc3)C2=O)cc1 [Example 249, 1-(4-hydroxyphenyl)-3-(4-methoxyphenyl)-7-((2,2,2-trifluoroethyl)amino)-3,4-dihydropyrimido[4,5-d]pyrimidin-2(1H)-one] | 0.1 to 1
COc1ccc(N2Cc3cnc(NCC4CC4)nc3N(c3ccncc3)C2=O)cc1 [Example 266] | 1 to 10
COc1ccc(N2Cc3cnc(NCC(F)(F)F)nc3N(c3ccc(-c4cn[nH]n4)cc3)C2=O)cc1 [Example 192, 1-(4-(2H-1,2,3-triazol-4-yl)phenyl)-3-(4-methoxyphenyl)-7-((2,2,2-trifluoroethyl)amino)-3,4-dihydropyrimido[4,5-d]pyrimidin-2(1H)-one] | 0.1 to 1
CCOc1ccc2c(n1)N(c1cnc(C(F)(F)F)nc1)C(=O)N(c1ccc3nn(C)cc3c1)C2 [Example 148, 7-ethoxy-3-(2-methyl-2H-indazol-5-yl)-1-(2-(trifluoromethyl)pyrimidin-5-yl)-3,4-dihydropyrido[2,3-d]pyrimidin-2(1H)-one] | 0.1 to 1
COc1ccc(N2Cc3cnc(NCC(F)(F)F)nc3N([C@H]3CC[C@H](OC)CC3)C2=O)cc1 [Example 258] | 0.1 to 1
Cn1cc2cc(N3Cc4cnc(NCC(F)(F)F)nc4N(c4ccc(Cl)cc4)C3=O)ccc2n1 [Example 263, 1-(4-chlorophenyl)-3-(2-methyl-2H-indazol-5-yl)-7-((2,2,2-trifluoroethyl)amino)-3,4-dihydropyrimido[4,5-d]pyrimidin-2(1H)-one] | < 0.1
COc1ccc(N2Cc3cnc(NCC(F)(F)F)nc3N(c3ccc4sccc4c3)C2=O)cc1 [Example 254, 1-(benzo[b]thiophen-5-yl)-3-(4-methoxyphenyl)-7-((2,2,2-trifluoroethyl)amino)-3,4-dihydropyrimido[4,5-d]pyrimidin2(1H)-one] | 0.1 to 1
COc1ccc(N2Cc3cnc(NCC(F)(F)F)nc3N(c3ccc(C#N)cc3)C2=O)cc1 [Example 251, 4-(3-(4-methoxyphenyl)-2-oxo-7-((2,2,2-trifluoroethyl)amino)-3,4-dihydropyrimido[4,5-d]pyrimidin-1(2H)-yl)benzonitrile] | 1 to 10
COc1ccc(N2Cc3cnc(NCC(F)(F)F)nc3N(c3cn[nH]c3)C2=O)cc1 [Example 194, 3-(4-methoxyphenyl)-1-(1H-pyrazol-4-yl)-7-((2,2,2-trifluoroethyl)amino)-3,4-dihydropyrimido[4,5-d]pyrimidin-2(1H)-one] | 1 to 10
O=C1N(c2ccc3ncccc3c2)Cc2cnc(NCC(F)(F)F)nc2N1c1ccc(OC(F)F)cc1 [Example 227, 1-(4-(difluoromethoxy)phenyl)-3-(quinolin-6-yl)-7-((2,2,2-trifluoroethyl)amino)-3,4-dihydropyrimido[4,5-d]pyrimidin-2(1H)-one] | 0.1 to 1
COc1ccc(N2C(=O)N(c3ccc4nn(C)cc4c3)Cc3ccc(N(C)C)nc32)cc1 [Example 160, 7-(dimethylamino)-1-(4-methoxyphenyl)-3-(2-methyl-2H-indazol-5-yl)-3,4-dihydropyrido[2,3-d]pyrimidin-2(1H)-one] | 0.1 to 1
COc1ccc(N2Cc3cnc(NCC4CC4)nc3N(c3ccc(OC)cc3)C2=O)cc1 [Example 267] | 0.1 to 1
COc1ccc(N2Cc3cnc(NCC(F)(F)F)nc3N(c3ccc(N)cc3)C2=O)cc1 [Example 204, 1-(4-aminophenyl)-3-(4-methoxyphenyl)-7-((2,2,2-trifluoroethyl)amino)-3,4-dihydropyrimido[4,5-d]pyrimidin-2(1H)-one] | 0.1 to 1
COC(=O)Cc1ccc(N2C(=O)N(c3ccc(OC)cc3)Cc3cnc(NCC(F)(F)F)nc32)cc1 [Example 205, methyl 2-(4-(3-(4-methoxyphenyl)-2-oxo-7-((2,2,2-trifluoroethyl)amino)-3,4-dihydropyrimido[4,5-d]pyrimidin-1(2H)-yl)phenyl)acetate] | 1 to 10
COc1ccc(N2C(=O)N(c3ccc4nn(C)cc4c3)Cc3ccc(N4CCCC4)nc32)cc1 [Example 158, 1-(4-methoxyphenyl)-3-(2-methyl-2H-indazol-5-yl)-7-(pyrrolidin-1-yl)-3,4-dihydropyrido[2,3-d]pyrimidin-2(1H)-one] | 0.1 to 1
Cn1cc2cc(N3Cc4ccc(OCC(F)F)nc4N(c4ccc5ncnn5c4)C3=O)ccc2n1 [Example 174, 1-([1,2,4]triazolo[1,5-a]pyridin-6-yl)-7-(2,2-difluoroethoxy)-3-(2-methyl-2H-indazol-5-yl)-3,4-dihydropyrido[2,3-d]pyrimidin-2(1H)-one] | 0.1 to 1
COC(=O)c1ccc(N2C(=O)N(c3ccc(OC)cc3)Cc3cnc(NCC(F)(F)F)nc32)cc1 [Example 203, methyl 4-(3-(4-methoxyphenyl)-2-oxo-7-((2,2,2-trifluoroethyl)amino)-3,4-dihydropyrimido[4,5-d]pyrimidin-1(2H)-yl)benzoate] | 0.1 to 1
Cn1cc2cc(N3Cc4ccc(OCC(F)F)nc4N(c4ccc5ncn(C)c5c4)C3=O)ccc2n1 [Example 173, 7-(2,2-difluoroethoxy)-1-(1-methyl-1H-benzo[d]imidazol-6-yl)-3-(2-methyl-2H-indazol-5-yl)-3,4-dihydropyrido[2,3-d]pyrimidin-2(1H)-one] | 0.1 to 1
COC1CCC(N2C(=O)N(c3ccc4nn(C)cc4c3)Cc3ccc(OCC(F)F)nc32)CC1 (centres unmarked) [Example 427, 7-(2,2-difluoroethoxy)-1-(4-methoxycyclohexyl)-3-(2-methyl-2H-indazol-5-yl)-1H,2H,3H,4H-pyrido[2,3-d]pyrimidin-2-one] | 1 to 10
CCOc1ccc2c(n1)N(c1ccc(OC(F)F)cc1)C(=O)N(c1ccnc(OC)c1)C2 [Example 111, 1-(4-(difluoromethoxy)phenyl)-7-ethoxy-3-(2-methoxypyridin-4-yl)-3,4-dihydropyrido[2,3-d]pyrimidin-2(1H)-one] | < 0.1
[2H]C([2H])([2H])Oc1ccc(N2C(=O)N(c3ccc4nc(C)n(C)c4c3)Cc3c(C)nc(NCC(F)(F)F)nc32)cc1 [Example 435, 3-(1,2-dimethyl-1H-benzo[d]imidazol-6-yl)-1-(4-(methoxy-d3)phenyl)-5-methyl-7-((2,2,2-trifluoroethyl)amino)-3,4-dihydropyrimido[4,5-d]pyrimidin-2(1H)-one] | < 0.1
COc1ccc(N2C(=O)N(c3ccc4nn(C)cc4c3)Cc3cnc(NC4CCCCC4)nc32)cc1 [Example 248, 7-(cyclohexylamino)-1-(4-methoxyphenyl)-3-(2-methyl-2H-indazol-5-yl)-3,4-dihydropyrimido[4,5-d]pyrimidin-2(1H)-one] | 1 to 10
COc1ccc(N2C(=O)N(c3ccc4nn(C)cc4c3)Cc3ccc(N4CCOCC4)nc32)cc1 [Example 157, 1-(4-methoxyphenyl)-3-(2-methyl-2H-indazol-5-yl)-7-morpholino-3,4-dihydropyrido[2,3-d]pyrimidin-2(1H)-one] | 0.1 to 1

same assay, conditions: Table 5a; given as a bound, not a class symbol; read-out: Enzyme Inhibition

SMILES | IC50 [µM]
CCOc1ccc(N2C(=O)N(c3ccc4nn(C)cc4c3)Cc3nnc(OCC)cc32)cc1 [Example 438] | > 10

same assay, conditions: Table 5b; Additional Examples; read-out: Enzyme Inhibition

SMILES | IC50 [µM]
COc1ccc(N2Cc3cnc(NCC(F)(F)F)nc3N(c3ccc(-c4ccsc4)cc3)C2=O)cc1 | > 10
COc1ccc(N2Cc3cnc(SC)nc3N(c3ccc(Cl)c(C(F)(F)F)c3)C2=O)cc1 | > 10
COc1ccc(N2Cc3cnc(NCC(F)(F)F)nc3N(S(C)(=O)=O)C2=O)cc1 | > 10
COc1ccc(N2C(=O)N(c3ccc4nn(C)cc4c3)Cc3cnc(NC4CCCC4)nc32)cc1 | 0.1 to 1
COc1ccc(N2C(=O)N(c3ccc4nn(C)cc4c3)Cc3ccc(N4CCC4)nc32)cc1 | > 10
